Reference: US10294229B2, “Heteroaryl substituted aminopyridine compounds” (BRISTOL-MYERS SQUIBB COMPANY, priority 2015, dated 2019)

Key:
[1] = Caco-2 Permeability Assay; type: in vitro ADME; conditions: human, Caco-2, test compound 3 μM
Procedure, shortened: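 Bidirectional permeability measured over 2 h at 37° C, compound dosed at 3 μM in the donor compartment (apical for absorptive, basolateral for secretive) with plain buffer as receiver.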

IRAK4 = IRAK4 (Homo sapiens (Human), UniProt Q9NWZ3); assay: IRAK4 Inhibition Assay; type: biochemical; conditions: ATP 500 μM; IRAK4 0.6 nM
Procedure, shortened: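 Mobility-shift kinase assay: 0.6 nM IRAK4, 500 μM ATP, 1.5 μM fluorescent peptide, 60 min, room temperature. Percent inhibition was normalised between enzyme-free and DMSO-only wells.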

[2] = test system: Human whole blood stimulated with a TLR2 agonist (lipoteichoic acid), IL-6 levels; assay: IRAK4 Whole Blood Assay; type: cell-based; conditions: Homo sapiens, lipoteichoic acid 10 μg/mL
Procedure, shortened: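 IL-6 was quantified by cytometric bead assay in supernatants of human blood (ACD-A) stimulated for 5 h with lipoteichoic acid at 10 μg/mL final. Compound exposure preceded stimulation for 60 min at 37 °C, 5% CO2.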

Chain of IRAK4 (Q9NWZ3 whole entry, species assumed): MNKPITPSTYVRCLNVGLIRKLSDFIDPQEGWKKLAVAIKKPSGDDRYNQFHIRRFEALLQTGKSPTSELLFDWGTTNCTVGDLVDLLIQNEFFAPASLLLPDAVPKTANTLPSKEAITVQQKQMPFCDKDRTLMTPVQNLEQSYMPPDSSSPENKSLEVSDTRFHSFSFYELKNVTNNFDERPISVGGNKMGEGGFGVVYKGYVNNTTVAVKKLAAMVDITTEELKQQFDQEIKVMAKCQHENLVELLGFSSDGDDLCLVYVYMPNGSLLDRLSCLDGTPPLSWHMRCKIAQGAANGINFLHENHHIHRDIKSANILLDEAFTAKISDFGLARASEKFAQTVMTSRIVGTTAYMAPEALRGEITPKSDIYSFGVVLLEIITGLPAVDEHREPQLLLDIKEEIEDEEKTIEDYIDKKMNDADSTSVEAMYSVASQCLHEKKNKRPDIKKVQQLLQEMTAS

SMILES	Papp at 2 h, 3 µM [1] [×10⁻⁶ cm/s]	IC50 (IRAK4) [nM]	EC50 [2] [nM]
CCOC(=O)N[C@H]1CC[C@H](n2cc(-c3cnc(-n4ncc5cc(C#N)cnc54)cc3NC(C)C)nn2)CC1 [Example 395, ethyl ((1r,4r)-4-(4-(6-(5-cyano-1H-pyrazolo[3,4-b]pyridin-1-yl)-4-(isopropylamino)pyridin-3-yl)-1H-1,2,3-triazol-1-yl)cyclohexyl)carbamate]	9.4	1	290
CC(=O)N1CC(c2cc(-c3cnc(-n4ncc5cc(C#N)cnc54)cc3NC(C)C)on2)C1 [Example 398, 1-(5-(3-(1-acetylazetidin-3-yl)isoxazol-5-yl)-4-(isopropylamino)pyridin-2-yl)-1H-pyrazolo[3,4-b]pyridine-5-carbonitrile]	6.9	4	300
CC(C)Nc1cc(-n2ncc3cc(C#N)cnc32)ncc1-c1cc(C(CO)CO)no1 [Example 399, 1-(5-(3-(1,3-dihydroxypropan-2-yl)isoxazol-5-yl)-4-(isopropylamino)pyridin-2-yl)-1H-pyrazolo[3,4-b]pyridine-5-carbonitrile]	< 1.5	10	140
COC(=O)N1CC(c2cc(-c3cnc(-n4ncc5cc(C#N)cnc54)cc3NC(C)C)on2)C1 [Example 401, methyl 3-(5-(6-(5-cyano-1H-pyrazolo[3,4-b]pyridin-1-yl)-4-(isopropylamino)pyridin-3-yl)isoxazol-3-yl)azetidine-1-carboxylate]	28	4	380
CC(=O)N1CCC(c2cc(-c3cnc(-n4ncc5cc(C#N)cnc54)cc3NC(C)C)on2)CC1 [Example 402, 1-(5-(3-(1-acetylpiperidin-4-yl)isoxazol-5-yl)-4-(isopropylamino)pyridin-2-yl)-1H-pyrazolo[3,4-b]pyridine-5-carbonitrile]	19.2	2	250
CC(C)Nc1cc(-n2ncc3cc(C#N)cnc32)ncc1-c1cc(C2CCNCC2)no1 [Example 403, 1-(4-(isopropylamino)-5-(3-(piperidin-4-yl)isoxazol-5-yl)pyridin-2-yl)-1H-pyrazolo[3,4-b]pyridine-5-carbonitrile]	< 1.5	4	230
CC(C)Nc1cc(-n2ncc3cc(C#N)cnc32)ncc1-c1cc([C@H]2CCNC2)no1 [Example 404, (S)-1-(4-(isopropylamino)-5-(3-(pyrrolidin-3-yl)isoxazol-5-yl)pyridin-2-yl)-1H-pyrazolo[3,4-b]pyridine-5-carbonitrile]	< 1.5	3	230
CC(=O)N1CC[C@H](c2cc(-c3cnc(-n4ncc5cc(C#N)cnc54)cc3NC(C)C)on2)C1 [Example 405, (S)-1-(5-(3-(1-acetylpyrrolidin-3-yl)isoxazol-5-yl)-4-(isopropylamino)pyridin-2-yl)-1H-pyrazolo[3,4-b]pyridine-5-carbonitrile]	12.5	4	260
CC(=O)N1CC[C@@H](c2cc(-c3cnc(-n4ncc5cc(C#N)cnc54)cc3NC(C)C)on2)C1 [Example 406, (R)-1-(5-(3-(1-acetylpyrrolidin-3-yl)isoxazol-5-yl)-4-(isopropylamino)pyridin-2-yl)-1H-pyrazolo [3,4-b]pyridine-5-carbonitrile]	16.3	3	470
CC(=O)N1CCC[C@@H](c2cc(-c3cnc(-n4ncc5cc(C#N)cnc54)cc3NC(C)C)on2)C1 [Example 407, (R)-1-(5-(3-(1-acetylpiperidin-3-yl)isoxazol-5-yl)-4-(isopropylamino)pyridin-2-yl)-1H-pyrazolo[3,4-b]pyridine-5-carbonitrile]	25	1	290
CC(C)Nc1cc(-n2ncc3cc(C#N)cnc32)ncc1-c1cc(C2CCCCN2)no1 [Example 412, (S)-1-(4-(isopropylamino)-5-(3-(piperidin-2-yl)isoxazol-5-yl)pyridin-2-yl)-1H-pyrazolo[3,4-b]pyridine-5-carbonitrile]	13.9	4	400
CNCCCc1cc(-c2cnc(-n3ncc4cc(C#N)cnc43)cc2NC(C)C)on1 [Example 414, 1-(4-(isopropylamino)-5-(3-(3-(methylamino)propyl)isoxazol-5-yl)pyridin-2-yl)-1H-pyrazolo[3,4-b]pyridine-5-carbonitrile]	< 1.5	7	250
CC(=O)N(C)CCCc1cc(-c2cnc(-n3ncc4cc(C#N)cnc43)cc2NC(C)C)on1 [Example 415, N-(3-(5-(6-(5-cyano-1H-pyrazolo[3,4-b]pyridin-1-yl)-4-(isopropylamino)pyridin-3-yl)isoxazol-3-yl)propyl)-N-methylacetamide]	18.3	3	260
CC(=O)N1CCC[C@@H]1c1cc(-c2cnc(-n3ncc4cc(C#N)cnc43)cc2NC(C)C)on1 [Example 417, (R)-1-(5-(3-(1-acetylpyrrolidin-2-yl)isoxazol-5-yl)-4-(isopropylamino)pyridin-2-yl)-1H-pyrazolo [3,4-b]pyridine-5-carbonitrile]	29.2	7	340
CC(=O)N1C2CCC1CC(c1cc(-c3cnc(-n4ncc5cc(C#N)cnc54)cc3NC(C)C)on1)C2 (stereo not drawn) [Example 419, 1-(5-(3-(8-acetyl-8-azabicyclo[3.2.1]octan-3-yl)isoxazol-5-yl)-4-(isopropylamino)pyridin-2-yl)-1H-pyrazolo[3,4-b]pyridine-5-carbonitrile]	19.9	2	430
CC(C)Nc1cc(-n2ncc3cc(C#N)cnc32)ncc1-c1cc([C@@H]2COC(C)(C)O2)no1 [Example 420, (R)-1-(5-(3-(2,2-dimethyl-1,3-dioxolan-4-yl)isoxazol-5-yl)-4-(isopropylamino)pyridin-2-yl)-1H-pyrazolo[3,4-b]pyridine-5-carbonitrile]	43.8	6	350
CC(=O)N1CCC(F)(c2cc(-c3cnc(-n4ncc5cc(C#N)cnc54)cc3NC(C)C)on2)CC1 [Example 421, 1-(5-(3-(1-acetyl-4-fluoropiperidin-4-yl)isoxazol-5-yl)-4-(isopropylamino)pyridin-2-yl)-1H-pyrazolo[3,4-b]pyridine-5-carbonitrile]	32.2	3	200
CC(C)Nc1cc(-n2ncc3cc(C#N)cnc32)ncc1-c1cc(C2CC(F)(F)CCN2)no1 (stereo not drawn) [Example 422, 1-(5-(3-(4,4-difluoropiperidin-2-yl)isoxazol-5-yl)-4-(isopropylamino)pyridin-2-yl)-1H-pyrazolo [3,4-b]pyridine-5-carbonitrile]	31.7	3	480
CC(C)Nc1cc(-n2ncc3cc(C#N)cnc32)ncc1-c1cc(C2COC(C)(C)CN2)no1 (stereo not drawn) [Example 423, 1-(5-(3-(6,6-dimethylmorpholin-3-yl)isoxazol-5-yl)-4-(isopropylamino)pyridin-2-yl)-1H-pyrazolo[3,4-b]pyridine-5-carbonitrile]	39.4	2	160
CC(C)Nc1cc(-n2ncc3cc(C#N)cnc32)ncc1-c1cc([C@@H]2C[C@H](O)CCN2)no1 [Example 424, 1-(5-(3-((2S,4R)-4-hydroxypiperidin-2-yl)isoxazol-5-yl)-4-(isopropylamino)pyridin-2-yl)-1H-pyrazolo[3,4-b]pyridine-5-carbonitrile]	< 1.5	10	180
CC(C)Nc1cc(-n2ncc3cc(C#N)cnc32)ncc1-c1cc([C@H]2C[C@@H](O)CCN2)no1 [Example 425, 1-(5-(3-((2R,4S)-4-hydroxypiperidin-2-yl)isoxazol-5-yl)-4-(isopropylamino)pyridin-2-yl)-1H-pyrazolo[3,4-b]pyridine-5-carbonitrile]	< 1.5	9	140
CC(=O)N1CC[C@H]1c1cc(-c2cnc(-n3ncc4cc(C#N)cnc43)cc2NC(C)C)on1 [Example 427, (S)-1-(5-(3-(1-acetylazetidin-2-yl)isoxazol-5-yl)-4-(isopropylamino)pyridin-2-yl)-1H-pyrazolo[3,4-b]pyridine-5-carbonitrile]	8	15	250
CC(C)Nc1cc(-n2ncc3cc(C#N)cnc32)ncc1-c1cc([C@@H]2COCCN2)on1 [Example 428, (S)-1-(4-(isopropylamino)-5-(5-(morpholin-3-yl)isoxazol-3-yl)pyridin-2-yl)-1H-pyrazolo[3,4-b]pyridine-5-carbonitrile]	26.3	4	460
CCN1CCOC[C@H]1c1cc(-c2cnc(-n3ncc4cc(C#N)cnc43)cc2NC(C)C)no1 [Example 431, (S)-1-(5-(5-(4-ethylmorpholin-3-yl)isoxazol-3-yl)-4-(isopropylamino)pyridin-2-yl)-1H-pyrazolo[3,4-b]pyridine-5-carbonitrile]	21.8	2	440
CC(C)Nc1cc(-n2ncc3cc(C#N)cnc32)ncc1-c1nnc(C(=O)N2CCOCC2)o1 [Example 433, 1-(4-(isopropylamino)-5-(5-(morpholine-4-carbonyl)-1,3,4-oxadiazol-2-yl)pyridin-2-yl)-1H-pyrazolo[3,4-b]pyridine-5-carbonitrile]	1.7	11	200
